Test results as given in paper PMC5761851, “Application of a phenotypic drug discovery strategy to identify biological and chemical starting points for inhibition of TSLP production in lung epithelial cells” (PLoS ONE, 2018).

What was measured:
Assay in all cases: kinase selectivity panel
Type in all cases: biochemical
Mnk2 = target: T1, Mnk2 (Homo sapiens, UniProt Q9HBH9); conditions: read-out: percentage of control activity (POC), Mnk2
T1 construct: purchased Eurofins Pharma Discovery Services (KinaseProfiler; Cerep BioPrint panel)
Description: (§1) Kinase selectivity was evaluated at Eurofins Pharma Discovery Services using a selection of 125 representative kinases tested at a concentration of 10 μM in duplicate (S3 Table). IC50 values for selected activities were further characterized at 9 duplicate concentrations. DNA-PK activity was determined at the SelectScreen® Biochemical kinase Profiling Service of Thermo Fisher Scientific.

AMPKα1 = target: T2, AMPKα1 (Homo sapiens, UniProt Q13131); conditions: read-out: percentage of control activity (POC), AMPKα1
T2 construct: purchased Eurofins Pharma Discovery Services (KinaseProfiler; Cerep BioPrint panel)
Description: as §1

Syk = Syk (Homo sapiens, UniProt P43405); conditions: read-out: percentage of control activity (POC), Syk
Description: as §1

EphA2 = target: T3, EphA2 (Homo sapiens, UniProt P29317); conditions: read-out: percentage of control activity (POC), EphA2
T3 construct: purchased Eurofins Pharma Discovery Services (KinaseProfiler; Cerep BioPrint panel)
Description: as §1

FGFR1 = target: T4, FGFR1 (Homo sapiens, UniProt P11362); conditions: read-out: percentage of control activity (POC), FGFR1
T4 construct: purchased Eurofins Pharma Discovery Services (KinaseProfiler; Cerep BioPrint panel)
Description: as §1

IKKβ = target: T5, IKKβ (Homo sapiens, UniProt O14920); conditions: read-out: percentage of control activity (POC), IKKβ
T5 construct: purchased Eurofins Pharma Discovery Services (KinaseProfiler; Cerep BioPrint panel)
T5 sequence (O14920 1-756): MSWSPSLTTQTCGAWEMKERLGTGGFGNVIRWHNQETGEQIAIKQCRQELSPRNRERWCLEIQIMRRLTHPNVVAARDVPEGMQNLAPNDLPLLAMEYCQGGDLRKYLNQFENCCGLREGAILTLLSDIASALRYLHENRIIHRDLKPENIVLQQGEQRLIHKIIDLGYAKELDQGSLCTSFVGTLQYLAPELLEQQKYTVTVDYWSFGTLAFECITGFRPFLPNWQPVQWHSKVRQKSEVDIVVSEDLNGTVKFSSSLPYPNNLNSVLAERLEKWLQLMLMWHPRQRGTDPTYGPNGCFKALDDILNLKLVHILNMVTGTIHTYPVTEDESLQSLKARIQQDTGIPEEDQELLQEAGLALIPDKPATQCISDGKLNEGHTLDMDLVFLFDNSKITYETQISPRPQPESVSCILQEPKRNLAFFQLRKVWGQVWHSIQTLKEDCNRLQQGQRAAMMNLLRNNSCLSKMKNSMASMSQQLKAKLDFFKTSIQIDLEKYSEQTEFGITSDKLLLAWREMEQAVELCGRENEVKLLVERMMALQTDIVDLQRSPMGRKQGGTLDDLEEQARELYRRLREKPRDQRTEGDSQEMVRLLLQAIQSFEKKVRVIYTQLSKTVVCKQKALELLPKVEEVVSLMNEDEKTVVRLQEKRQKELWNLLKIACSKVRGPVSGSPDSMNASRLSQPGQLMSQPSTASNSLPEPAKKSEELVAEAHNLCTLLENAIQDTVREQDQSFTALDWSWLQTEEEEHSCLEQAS
Description: as §1

PKCβII = target: T6, PKCβII (Homo sapiens, UniProt P05771); conditions: read-out: percentage of control activity (POC), PKCβII
T6 construct: purchased Eurofins Pharma Discovery Services (KinaseProfiler; Cerep BioPrint panel)
Description: as §1

MAPK1 = target: T7, MAPK1 (Homo sapiens, UniProt P27361); conditions: read-out: percentage of control activity (POC), MAPK1
T7 construct: purchased Eurofins Pharma Discovery Services (KinaseProfiler; Cerep BioPrint panel)
Description: as §1

KDR = target: T8, KDR (Homo sapiens, UniProt P35968); conditions: read-out: percentage of control activity (POC), KDR
T8 construct: purchased Eurofins Pharma Discovery Services (KinaseProfiler; Cerep BioPrint panel)
Description: as §1

MAPKAP-K2 = target: T9, MAPKAP-K2 (Homo sapiens, UniProt P49137); conditions: read-out: percentage of control activity (POC), MAPKAP-K2
T9 construct: purchased Eurofins Pharma Discovery Services (KinaseProfiler; Cerep BioPrint panel)
Description: as §1

IRAK4 = target: T10, IRAK4 (Homo sapiens, UniProt Q9NWZ3); conditions: read-out: percentage of control activity (POC), IRAK4
T10 construct: purchased Eurofins Pharma Discovery Services (KinaseProfiler; Cerep BioPrint panel)
T10 sequence (Q9NWZ3 1-460): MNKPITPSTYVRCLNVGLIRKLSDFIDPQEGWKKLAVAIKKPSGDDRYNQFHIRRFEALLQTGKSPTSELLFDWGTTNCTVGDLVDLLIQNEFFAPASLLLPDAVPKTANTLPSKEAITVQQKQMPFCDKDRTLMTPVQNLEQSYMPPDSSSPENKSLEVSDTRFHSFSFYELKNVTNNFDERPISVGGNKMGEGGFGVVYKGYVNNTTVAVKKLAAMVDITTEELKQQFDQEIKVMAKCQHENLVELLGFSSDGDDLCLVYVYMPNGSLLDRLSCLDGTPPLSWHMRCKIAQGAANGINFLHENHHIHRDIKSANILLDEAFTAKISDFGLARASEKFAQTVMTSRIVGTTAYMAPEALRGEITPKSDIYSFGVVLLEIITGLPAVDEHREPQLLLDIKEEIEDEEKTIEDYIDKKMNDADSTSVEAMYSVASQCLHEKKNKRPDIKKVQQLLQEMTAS
Description: as §1

NLK = target: T11, NLK (Homo sapiens, UniProt Q9UBE8); conditions: read-out: percentage of control activity (POC), NLK
T11 construct: purchased Eurofins Pharma Discovery Services (KinaseProfiler; Cerep BioPrint panel)
T11 sequence (Q9UBE8 1-527): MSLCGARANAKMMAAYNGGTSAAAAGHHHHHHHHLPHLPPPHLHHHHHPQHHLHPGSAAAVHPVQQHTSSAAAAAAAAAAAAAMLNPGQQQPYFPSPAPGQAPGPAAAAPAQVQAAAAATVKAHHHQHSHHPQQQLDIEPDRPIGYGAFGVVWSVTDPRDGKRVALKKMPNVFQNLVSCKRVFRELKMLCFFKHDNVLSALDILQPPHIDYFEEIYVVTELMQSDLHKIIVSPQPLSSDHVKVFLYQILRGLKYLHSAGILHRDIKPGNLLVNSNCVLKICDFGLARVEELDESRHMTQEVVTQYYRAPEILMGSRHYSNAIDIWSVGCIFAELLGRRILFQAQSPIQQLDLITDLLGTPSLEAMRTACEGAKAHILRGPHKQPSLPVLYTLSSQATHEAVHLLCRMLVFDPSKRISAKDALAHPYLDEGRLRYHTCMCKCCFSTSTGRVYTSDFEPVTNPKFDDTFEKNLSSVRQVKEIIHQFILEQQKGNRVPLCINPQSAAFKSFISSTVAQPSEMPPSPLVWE
Description: as §1

T1 sequence (Q9HBH9 whole entry): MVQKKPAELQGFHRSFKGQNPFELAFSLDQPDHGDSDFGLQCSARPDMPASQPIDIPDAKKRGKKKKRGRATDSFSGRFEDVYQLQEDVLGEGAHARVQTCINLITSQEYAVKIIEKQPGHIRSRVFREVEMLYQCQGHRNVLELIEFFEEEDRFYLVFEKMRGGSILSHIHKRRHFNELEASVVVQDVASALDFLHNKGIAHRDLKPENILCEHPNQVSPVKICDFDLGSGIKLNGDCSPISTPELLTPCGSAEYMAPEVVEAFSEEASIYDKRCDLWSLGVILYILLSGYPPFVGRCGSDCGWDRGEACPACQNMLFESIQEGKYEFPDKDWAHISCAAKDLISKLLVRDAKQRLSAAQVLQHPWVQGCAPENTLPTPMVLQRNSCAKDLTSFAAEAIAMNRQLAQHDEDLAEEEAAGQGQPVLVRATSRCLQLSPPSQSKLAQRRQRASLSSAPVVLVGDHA
T8 sequence (P35968 20-1356): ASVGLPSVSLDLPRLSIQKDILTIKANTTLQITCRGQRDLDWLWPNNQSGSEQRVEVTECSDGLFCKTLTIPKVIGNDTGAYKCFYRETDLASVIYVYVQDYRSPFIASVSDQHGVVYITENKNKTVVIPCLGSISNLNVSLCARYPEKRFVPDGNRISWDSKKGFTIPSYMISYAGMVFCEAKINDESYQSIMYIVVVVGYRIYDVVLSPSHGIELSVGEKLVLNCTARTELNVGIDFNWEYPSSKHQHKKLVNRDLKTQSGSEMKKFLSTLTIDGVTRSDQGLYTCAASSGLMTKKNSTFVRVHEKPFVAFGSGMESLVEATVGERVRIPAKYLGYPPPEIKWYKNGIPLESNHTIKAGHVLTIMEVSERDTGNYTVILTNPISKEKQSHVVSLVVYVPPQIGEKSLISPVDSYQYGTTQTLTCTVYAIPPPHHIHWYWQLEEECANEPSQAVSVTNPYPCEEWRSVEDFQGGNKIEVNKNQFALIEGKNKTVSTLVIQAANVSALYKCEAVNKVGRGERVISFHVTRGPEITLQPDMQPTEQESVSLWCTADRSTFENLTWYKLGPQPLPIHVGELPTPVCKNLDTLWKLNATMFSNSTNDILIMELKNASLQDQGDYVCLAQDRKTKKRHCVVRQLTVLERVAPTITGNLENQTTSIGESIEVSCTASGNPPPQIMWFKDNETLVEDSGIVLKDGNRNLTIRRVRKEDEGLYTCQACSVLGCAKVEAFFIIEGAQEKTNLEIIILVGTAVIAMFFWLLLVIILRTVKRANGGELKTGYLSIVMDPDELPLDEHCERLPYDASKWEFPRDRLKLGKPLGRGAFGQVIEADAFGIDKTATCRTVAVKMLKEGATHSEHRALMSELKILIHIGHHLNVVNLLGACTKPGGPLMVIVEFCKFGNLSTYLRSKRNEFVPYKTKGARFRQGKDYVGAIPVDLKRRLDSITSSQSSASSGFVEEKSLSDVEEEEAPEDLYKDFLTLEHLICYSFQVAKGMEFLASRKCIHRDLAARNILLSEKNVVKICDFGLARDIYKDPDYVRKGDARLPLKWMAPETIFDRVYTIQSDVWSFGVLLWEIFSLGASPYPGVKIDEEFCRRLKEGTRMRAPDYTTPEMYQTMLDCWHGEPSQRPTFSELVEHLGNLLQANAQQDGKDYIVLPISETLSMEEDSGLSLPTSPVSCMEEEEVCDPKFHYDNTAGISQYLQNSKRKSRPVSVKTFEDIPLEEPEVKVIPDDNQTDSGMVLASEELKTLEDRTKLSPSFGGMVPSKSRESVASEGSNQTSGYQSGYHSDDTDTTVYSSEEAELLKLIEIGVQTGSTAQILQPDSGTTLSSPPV
T2 sequence (Q13131 whole entry): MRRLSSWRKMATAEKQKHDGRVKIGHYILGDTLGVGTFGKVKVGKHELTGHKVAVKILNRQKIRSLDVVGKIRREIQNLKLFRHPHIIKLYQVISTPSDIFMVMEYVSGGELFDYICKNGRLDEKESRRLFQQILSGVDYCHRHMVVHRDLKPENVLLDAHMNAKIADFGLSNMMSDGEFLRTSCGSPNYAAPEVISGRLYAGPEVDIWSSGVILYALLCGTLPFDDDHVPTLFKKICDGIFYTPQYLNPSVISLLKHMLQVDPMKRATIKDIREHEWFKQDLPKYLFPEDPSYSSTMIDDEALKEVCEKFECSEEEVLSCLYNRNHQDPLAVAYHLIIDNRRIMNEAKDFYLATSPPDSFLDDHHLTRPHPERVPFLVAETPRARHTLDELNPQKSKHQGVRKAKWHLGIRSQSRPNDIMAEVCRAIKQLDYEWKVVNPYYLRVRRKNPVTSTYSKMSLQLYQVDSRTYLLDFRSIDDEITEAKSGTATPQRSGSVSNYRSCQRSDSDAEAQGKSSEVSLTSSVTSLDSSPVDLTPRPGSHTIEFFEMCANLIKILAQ
T2 sequence (Q9Y478 whole entry partner): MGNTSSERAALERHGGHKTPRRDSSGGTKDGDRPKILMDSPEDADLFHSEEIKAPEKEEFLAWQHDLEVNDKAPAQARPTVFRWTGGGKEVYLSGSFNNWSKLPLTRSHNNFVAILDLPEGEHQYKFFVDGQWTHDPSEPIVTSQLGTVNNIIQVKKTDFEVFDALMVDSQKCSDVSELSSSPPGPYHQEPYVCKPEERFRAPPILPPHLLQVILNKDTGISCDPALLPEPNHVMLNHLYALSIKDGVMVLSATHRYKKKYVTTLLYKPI
T2 sequence (P54619 whole entry partner): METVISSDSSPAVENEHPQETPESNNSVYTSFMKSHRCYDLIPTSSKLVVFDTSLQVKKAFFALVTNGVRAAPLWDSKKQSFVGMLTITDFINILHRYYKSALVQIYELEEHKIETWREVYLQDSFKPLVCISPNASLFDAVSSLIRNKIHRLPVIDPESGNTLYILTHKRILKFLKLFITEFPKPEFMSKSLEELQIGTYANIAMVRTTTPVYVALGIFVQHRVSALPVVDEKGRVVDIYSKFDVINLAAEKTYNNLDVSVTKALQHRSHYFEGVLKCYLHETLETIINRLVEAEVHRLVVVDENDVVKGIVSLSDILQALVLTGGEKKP
T4 sequence (P11362 22-822): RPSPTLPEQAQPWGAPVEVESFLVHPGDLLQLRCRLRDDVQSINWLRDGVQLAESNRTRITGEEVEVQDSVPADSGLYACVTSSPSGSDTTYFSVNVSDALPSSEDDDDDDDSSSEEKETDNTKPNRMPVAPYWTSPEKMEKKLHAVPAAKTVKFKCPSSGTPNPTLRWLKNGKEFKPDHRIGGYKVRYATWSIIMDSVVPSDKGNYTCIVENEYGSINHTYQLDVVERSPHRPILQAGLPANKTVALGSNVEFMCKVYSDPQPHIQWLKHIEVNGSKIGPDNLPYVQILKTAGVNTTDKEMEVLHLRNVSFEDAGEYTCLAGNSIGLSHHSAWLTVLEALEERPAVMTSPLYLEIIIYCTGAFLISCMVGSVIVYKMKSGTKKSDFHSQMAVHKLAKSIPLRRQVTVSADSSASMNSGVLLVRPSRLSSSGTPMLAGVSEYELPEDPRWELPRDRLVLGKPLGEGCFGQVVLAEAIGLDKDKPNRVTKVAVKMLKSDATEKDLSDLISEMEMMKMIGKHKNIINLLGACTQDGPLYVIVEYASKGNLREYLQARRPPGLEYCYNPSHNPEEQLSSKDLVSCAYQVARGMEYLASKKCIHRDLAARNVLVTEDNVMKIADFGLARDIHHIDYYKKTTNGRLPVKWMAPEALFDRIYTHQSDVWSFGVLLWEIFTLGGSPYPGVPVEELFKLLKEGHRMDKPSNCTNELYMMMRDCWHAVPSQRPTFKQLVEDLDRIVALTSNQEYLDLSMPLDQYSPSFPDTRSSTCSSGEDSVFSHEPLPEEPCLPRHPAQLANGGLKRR
T7 sequence (P27361 whole entry): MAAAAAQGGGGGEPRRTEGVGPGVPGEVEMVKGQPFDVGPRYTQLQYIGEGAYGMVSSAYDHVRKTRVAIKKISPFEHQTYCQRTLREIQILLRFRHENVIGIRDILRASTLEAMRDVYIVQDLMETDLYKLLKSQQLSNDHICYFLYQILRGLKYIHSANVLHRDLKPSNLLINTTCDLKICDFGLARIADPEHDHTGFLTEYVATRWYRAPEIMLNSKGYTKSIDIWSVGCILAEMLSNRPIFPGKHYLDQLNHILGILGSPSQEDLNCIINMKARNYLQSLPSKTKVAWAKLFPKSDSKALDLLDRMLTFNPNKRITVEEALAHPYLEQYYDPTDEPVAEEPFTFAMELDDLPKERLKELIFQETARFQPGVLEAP
T6 sequence (P05771 1-673 isoform P05771-2): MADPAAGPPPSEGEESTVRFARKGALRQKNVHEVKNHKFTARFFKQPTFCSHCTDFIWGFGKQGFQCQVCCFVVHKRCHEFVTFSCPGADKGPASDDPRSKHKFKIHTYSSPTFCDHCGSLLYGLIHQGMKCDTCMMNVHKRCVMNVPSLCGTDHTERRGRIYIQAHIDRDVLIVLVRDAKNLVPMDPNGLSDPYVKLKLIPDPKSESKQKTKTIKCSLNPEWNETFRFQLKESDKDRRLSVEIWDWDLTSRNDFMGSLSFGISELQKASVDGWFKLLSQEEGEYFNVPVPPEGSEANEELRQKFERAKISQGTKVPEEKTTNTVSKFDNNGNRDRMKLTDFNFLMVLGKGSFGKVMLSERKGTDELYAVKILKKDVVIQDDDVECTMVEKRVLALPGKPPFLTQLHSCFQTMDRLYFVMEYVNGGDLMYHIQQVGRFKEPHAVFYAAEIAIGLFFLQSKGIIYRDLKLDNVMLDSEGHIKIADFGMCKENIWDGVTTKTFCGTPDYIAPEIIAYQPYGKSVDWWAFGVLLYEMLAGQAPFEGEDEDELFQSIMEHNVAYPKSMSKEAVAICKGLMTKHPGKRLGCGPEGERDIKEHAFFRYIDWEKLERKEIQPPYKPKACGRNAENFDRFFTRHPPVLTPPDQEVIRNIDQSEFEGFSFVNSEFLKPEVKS

remaining activity at 10 µM (Mnk2)	remaining activity at 10 µM (AMPKα1)	remaining activity at 10 µM (Syk)	remaining activity at 10 µM (EphA2)	remaining activity at 10 µM (FGFR1)	remaining activity at 10 µM (IKKβ)	remaining activity at 10 µM (PKCβII)	remaining activity at 10 µM (MAPK1)	remaining activity at 10 µM (KDR)	remaining activity at 10 µM (MAPKAP-K2)	remaining activity at 10 µM (IRAK4)	remaining activity at 10 µM (NLK)	SMILES
91%	98%	101%	100%	95%	107%	103%	88%	93%	106%	92%	99%	Cc1ccc(C(=O)NCC2CC2)cc1-c1ccc2c(c1)NC(=O)C21CCCC1 [compound 3]
98%	114%	86%	63%	109%	127%	113%	85%	82%	110%	118%	94%	COc1c(NC(=O)c2ccc(C)c(-c3nnc4c(NCC(C)(C)C)nccn34)c2)cc(C(C)(C)C)cc1NS(C)(=O)=O [compound 7, reference compound]

Continued, compound first:

SMILES	remaining activity at 10 µM (Mnk2)	remaining activity at 10 µM (AMPKα1)	remaining activity at 10 µM (Syk)	remaining activity at 10 µM (EphA2)	remaining activity at 10 µM (FGFR1)	remaining activity at 10 µM (IKKβ)	remaining activity at 10 µM (PKCβII)	remaining activity at 10 µM (MAPK1)	remaining activity at 10 µM (KDR)	remaining activity at 10 µM (MAPKAP-K2)	remaining activity at 10 µM (IRAK4)	remaining activity at 10 µM (NLK)
CC(C)(C)N1CCC(c2cc(-c3ccc(F)cc3Cl)c3cc[n+]([O-])c(-c4c(Cl)cccc4Cl)c3n2)CC1 [compound 2]	100%	105%	95%	103%	80%	102%	117%	105%	92%	108%	95%	86%
Cn1cc(-c2cccc(-c3nc(C(=O)NC4C5CC6CC4CC(O)(C6)C5)c(N)nc3N)c2)cn1 (stereo not drawn) [compound 4]	86%	85%	66%	97%	86%	95%	110%	96%	72%	107%	82%	85%
CS(=O)(=O)N1CCN(c2ccc(Nc3ncc(C(N)=O)c(NC4CC4)n3)cc2)CC1 [compound 5]	84%	-1%	0%	57%	3%	8%	80%	34%	6%	85%	13%	83%
